# From paper PMC8894159, “Paltusotine, a novel oral once-daily nonpeptide SST2 receptor agonist, suppresses GH and IGF-1 in healthy volunteers” (Pituitary, 2022)
# Where “and” joins values, the source holds several entries; their conditions need not be identical. Identical values can stand only once. Like-named read-outs stand apart in the source and are kept apart here.
# Legend:
# [1] = parameters: method as in doi:10.1530/endoabs.70.AEP627; details: separate study, cited from earlier work
# [2] = Multiple ascending dose plasma pharmacokinetics in healthy volunteers; format: in vivo, human; details: for Cmax / Tmax / AUC(0-t) / half-life: human, plasma, oral; for AUC(0-t): read-out: AUC0-24
# Protocol: In the single-dose phase, participants were randomized 6:2 to paltusotine (1.25, 2.5, 5, 10, 20, 40, and 60 mg) or placebo in 7 cohorts (S1 to S7). Cohorts comparing oral bioavailability of solution versus capsules and the effect of a standardized high-fat, high-calorie breakfast on oral bioavailability of the capsule formulation employed the 10 mg dose level. In the multiple-dose phase, participants were randomized 6:3 to once-daily oral paltusotine capsules or placebo at doses of 5 mg for 7 days (M1, Day Last = Day 7), and 10, 20, and 30 mg daily for 10 days (M2, M3, M4, Day Last = Day 10). The initial starting dose of 1.25 mg in the single-dose phase was selected for this study based on nonclinical pharmacologic activity, pharmacokinetics, and safety studies. Subsequent doses were either specified in the protocol or were selected by the safety review committee responsible for the safety oversight of the study.
# Single-dose cohorts: Plasma samples were collected on Day 1 (pre-dose, every 15 min up to 90 min post-dose, then at 2, 3, 4, 6, 8, 10, 12, 18, 24, 48, 72, 96, 120, and 144 h post-dose). Multiple-dose cohorts: For the 5 mg cohort, plasma samples were collected on Day 1 (pre-dose, every 15 min up to 90 min post-dose, then at 2, 3, 4, 6, 8, 10, 12, and 18 h post-dose), Days 2–6 (pre-dose and 2 h post-dose), Day 7 (same time points as Day 1, followed by samples at 18, 24, 48, 72, 96, 120, and 144 h post-dose). For all other multiple-dose cohorts, plasma samples were collected on Day 1 (pre-dose, every 15 min up to 90 min post-dose, then at 2, 3, 4, 6, 8, 10, 12, and 18 h post-dose), Days […] (same time points as Day 1, followed by samples at 18, 24, 48, 72, 96, 120, 144, 192, and 240 h post-dose).
# Plasma pharmacokinetic sample analysis for paltusotine was determined using validated procedures by CPR Pharma Services (Thebarton, Australia). Briefly, plasma paltusotine concentrations were determined by high-pressure liquid chromatography (HPLC) coupled with tandem mass spectrometry detection (MS/MS). Deuterated paltusotine was used as an internal standard. Supported liquid extraction was used to extract paltusotine and the internal standard. The analyte was separated by HPLC using an ACE C18-AR column (Advanced Chromatography Technologies, Ltd, Aberdeen, Scotland), and the eluates were monitored by an API 4000™ LC–MS/MS System (Sciex, Framingham, MA) in positive multiple reaction monitoring mode. The extract was then assayed against a calibration curve. The data were acquired and integrated by the data acquisition software Analyst® (Sciex), linked directly to the API 4000™ LC–MS/MS System, and then processed using Watson LIMS™ software (Thermo Scientific, Waltham, MA), where applicable. The calibration range was 0.100 to 100 ng/mL using 100 μL of plasma, with a lower limit of quantification of 0.100 ng/mL. The inter-assay accuracy was 94% to 100%, and the inter-assay precision (% CV) was between 6.1% and 15%.
# For assessing pharmacokinetics of paltusotine, the single-dose pharmacokinetic population included all randomized participants who received any amount of study drug with sufficient plasma concentration data. For the multiple-dose cohorts, only participants who received all doses were included. The relative bioavailability of the capsule formulation was determined by comparing its pharmacokinetic parameters with those of the solution formulation at the 10 mg dose. Food effect was determined at the same dose by comparing pharmacokinetic parameters in the fasting state to those when paltusotine was administered with a high-fat, high-calorie meal. For both formulation and food effect, ANOVA with treatment as a fixed effect and subject as a random effect was performed. Data for peak concentration (Cmax), AUC0-last, and AUC0-inf were natural log-transformed.
# [3] = tested on: stimulated-GH and IGF-1 secretion; parameters: method as in ref 13 = [13]; 13. Betz SF Markison S Kusnetzow AK Athanacio JD Rico-Bautista E Madan A Suppression of growth hormone and insulin-like growth factor 1 in rats after oral administration of CRN00808, a small molecule; details: cited from earlier work
# [4] = 5 mg, 5 mg capsules once daily, Day 1, mean ± SD
# [5] = 5 mg, 5 mg capsules once daily, Day 7, mean ± SD
# [6] = 10 mg, 10 mg capsules once daily, Day 1, mean ± SD
# [7] = 10 mg, 10 mg capsules once daily, Day 10, mean ± SD
# [8] = 20 mg, 20 mg capsules once daily, Day 1, mean ± SD
# [9] = 20 mg, 20 mg capsules once daily, Day 10, mean ± SD
# [10] = 30 mg, 30 mg capsules once daily, Day 1, mean ± SD
# [11] = 30 mg, 30 mg capsules once daily, Day 10, mean ± SD
structure (smiles),measurement,setting,value
"Cl.N#Cc1cccc(-c2ccc3ncc(-c4cc(F)cc(F)c4)c(N4CCC(N)CC4)c3c2)c1O [paltusotine, 3-[4-(4-Aminopiperidin-1-yl)-3-(3,5-difluorophenyl)quinolin-6-yl]-2-hydroxybenzonitrile hydrochloride]",mean absolute oral bioavailability,[1]; oral solution,70%
same,t1/2 after intravenous administration,[1]; sampling up to 144 h,29 h
same,Ctrough,"[2]; 5 mg capsules once daily, Day 7, mean ± SD",10.8 ± 5.11 ng/mL
same,Ctrough,"[2]; 10 mg capsules once daily, Day 10, mean ± SD",22.2 ng/mL and 22.2 ± 7.38 ng/mL
same,Ctrough,"[2]; 20 mg capsules once daily, Day 10, mean ± SD",37.9 ± 11.4 ng/mL
same,Ctrough,"[2]; 30 mg capsules once daily, Day 10, mean ± SD",51.1 ± 32.0 ng/mL
same,Cmax,[2]; [4],16.8 ± 7.22 ng/mL
same,Tmax,[2]; [4],1.2 ± 0.1 h
same,AUC(0-t),[2]; [4],167 ± 73.4 ng·h/mL
same,half-life,"[2]; 5 mg, 5 mg capsules once daily, Day 7, sampling to 144 h, mean ± SD, read-out: t1/2 (converted)",34 ± 4.7 h
same,Cmax,[2]; [5],35.5 ± 12 ng/mL
same,Tmax,[2]; [5],2.1 ± 0.6 h
same,AUC(0-t),[2]; [5],421 ± 163 ng·h/mL
same,Cmax,[2]; [6],78.7 ± 45.3 ng/mL
same,Tmax,[2]; [6],1.8 ± 0.9 h
same,AUC(0-t),[2]; [6],661 ± 340 ng·h/mL
same,half-life,"[2]; 10 mg, 10 mg capsules once daily, Day 10, sampling to 240 h, mean ± SD, read-out: t1/2 (converted)",42 ± 5 h
same,Cmax,[2]; [7],75.5 ± 37.4 ng/mL
same,Tmax,[2]; [7],3 ± 1.8 h
same,AUC(0-t),[2]; [7],956 ± 371 ng·h/mL
same,Cmax,[2]; [8],88.7 ± 43.3 ng/mL
same,Tmax,[2]; [8],2.4 ± 0.8 h
same,AUC(0-t),[2]; [8],811 ± 409 ng·h/mL
same,half-life,"[2]; 20 mg, 20 mg capsules once daily, Day 10, sampling to 240 h, mean ± SD, read-out: t1/2 (converted)",50 ± 6.6 h
same,Cmax,[2]; [9],132 ± 79.2 ng/mL
same,Tmax,[2]; [9],1.6 ± 0.4 h
same,AUC(0-t),[2]; [9],1560 ± 733 ng·h/mL
same,Cmax,[2]; [10],78.2 ± 60.7 ng/mL
same,Tmax,[2]; [10],1.4 ± 0.9 h
same,AUC(0-t),[2]; [10],578 ± 411 ng·h/mL
same,half-life,"[2]; 30 mg, 30 mg capsules once daily, Day 10, sampling to 240 h, mean ± SD, read-out: t1/2 (converted)",46 ± 7.4 h
same,Cmax,[2]; [11],154 ± 102 ng/mL
same,Tmax,[2]; [11],4.5 ± 2.1 h
same,AUC(0-t),[2]; [11],2080 ± 1220 ng·h/mL
same,half-life,"[2]; conclusion summary, read-out: approximate t1/2",24 to 48 h
same,half-life,"[2]; multiple dose 10-30 mg range, sampling to 240 h after last dose, read-out: mean t1/2",42 to 50 h
same,stimulated-GH and IGF-1 secretion in rats,[3],suppresses stimulated-GH and IGF-1 secretion
